# Assay results from ChEMBL document CHEMBL6078624, “Structure-based discovery of a 4,5-Dihydropyrazole-cored PET ligand for imaging of receptor-interacting serine/threonine-protein kinase 1 (RIPK1) in the brain” (Eur J Med Chem, 2024).
# Key:
# HT-29 = assay: Anti-necroptotic activity against TNF induced human HT-29 cells assessed as cell viability incubated for 48 hrs by Cell Titer-Glo luminescent cell viability assay; assay type: functional, cell-based; settings: HT-29, 48 h
# L929 = assay: Anti-necroptotic activity against TNF induced mouse L929 cells assessed as cell viability incubated for 24 hrs by Cell Titer-Glo luminescent cell viability assay; assay type: functional, cell-based; settings: L929, 24 h
smiles,measurement,setting,value
Cc1ncc(-c2ccc3nc(N[11C](C)=O)sc3c2)cc1NC(=O)CC1CCCCC1,IC50,HT-29,23 nM
same,IC50,L929,13 nM
